# Target: T1, recombinant JAK1 enzyme (Homo sapiens, UniProt P23458)
# T1 construct: 8 nM of recombinant JAK1 enzyme (Insect expressed: V866-K1155); host or cells: insect cells
# Experiment: JAK1 Kinase Assay (luciferase-luciferin-coupled chemiluminescence, ATP consumption)
# Type: biochemical
# Conditions: 8 nM JAK1 (V866-K1155), 30 μM IRS-1 peptide (Y608), 2 μM ATP, 2 hours ambient temperature, KinaseGlo; read-out: JAK1 IRS-1tide Chemilum (IC50)
# Experimental: JAK1 Kinase Assay Used to Test Compounds
# JAK1 Kinase activity was measured as the percent of ATP consumed following the kinase reaction using luciferase-luciferin-coupled chemiluminescence. The reaction was conducted in white medium binding 384-well microtiter plates. The kinase reaction were initiated by combining test compounds, 8 nM of recombinant JAK1 enzyme (Insect expressed: V866-K1155), 30 μM of IRS-1 peptide (Y608) and 2 μM ATP in buffer containing 20 mM Hepes (pH 7.5), 10 mM MgCl2, 0.01% Brij, 5% glycerol and 1 mM DTT in a 20 μL volume. The reaction mixture was incubated at ambient temperature for 2 hours. Following the kinase reaction, a 20 μL aliquot of KinaseGlo was added to stop the reaction and measure remaining ATP via detection of chemiluminescence using the Envison reader. Total ATP consumption was limited to 25-60%.
# T1 sequence (P23458 865-1154 limits assumed): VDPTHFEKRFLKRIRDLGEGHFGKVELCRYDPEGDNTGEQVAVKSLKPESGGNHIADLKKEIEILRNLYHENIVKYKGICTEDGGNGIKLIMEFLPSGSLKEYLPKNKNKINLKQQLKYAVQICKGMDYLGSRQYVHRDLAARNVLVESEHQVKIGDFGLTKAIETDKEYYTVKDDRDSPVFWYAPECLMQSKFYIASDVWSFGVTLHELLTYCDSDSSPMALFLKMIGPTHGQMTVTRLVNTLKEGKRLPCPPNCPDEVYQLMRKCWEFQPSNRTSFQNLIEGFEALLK
row,SMILES,IC50
1,COC(=O)c1ccc(-c2nnc(Nc3ccc(Cl)cc3)c3ccccc23)cc1 [Compound 26],1000 to 2000 nM
2,"COC(=O)c1ccc(-c2nnc(Nc3cccc(Cl)c3)c3ccccc23)cc1 [Compound 16, methyl 4-{4-[(3-chlorophenyl)amino]phthalazin-1-yl}benzoate]",150 to 500 nM
3,"NC(=O)c1ccc(-c2nnc(Nc3cc(C(F)(F)F)cc(C(F)(F)F)c3)c3ccccc23)cc1 [Compound 9, 4-(4-{[3,5-bis(trifluoromethyl)phenyl]amino}phthalazin-1-yl)benzamide]",1000 to 2000 nM
4,"O=C1OCc2cc(-c3nnc(Nc4cc(C(F)(F)F)cc(C(F)(F)F)c4)c4ccccc34)ccc21 [Compound 27, 5-(4-{[3,5-bis(trifluoromethyl)phenyl]amino}phthalazin-1-yl)-2-benzofuran-1(3H)-one]",2000 to 30000 nM
5,"CC(=O)c1ccc(-c2nnc(Nc3cc(C(F)(F)F)cc(C(F)(F)F)c3)c3ccccc23)s1 [Compound 12, 1-[5-(4-{[3,5-bis(trifluoromethyl)phenyl]amino}phthalazin-1-yl)-2-thienyl]ethanone]",2000 to 30000 nM
6,COC(=O)c1ccc(-c2nnc(Nc3cccc(C)c3)c3ccccc23)cc1 [Compound 47],500 to 1000 nM
7,"O=C(NCCN1CCOCC1)c1ccc(-c2nnc(Nc3cc(C(F)(F)F)cc(C(F)(F)F)c3)c3ccccc23)cc1 [Compound 49, 4-(4-{[3,5-bis(trifluoromethyl)phenyl]amino}phthalazin-1-yl)-N-(2-morpholin-4-ylethyl)benzamide]",500 to 1000 nM
8,"FC(F)(F)c1cc(Nc2nnc(-c3ccc(-c4cc[nH]n4)cc3)c3ccccc23)cc(C(F)(F)F)c1 [Compound 52, N-[3,5-bis(trifluoromethyl)phenyl]-4-[4-(1H-pyrazol-3-yl)phenyl]phthalazin-1-amine]",150 to 500 nM

# Now from value to compound:
row,IC50,SMILES
1,150 to 500 nM,"COC(=O)c1ccc(-c2nnc(Nc3cc(NCCN(C)C)cc(C(F)(F)F)c3)c3ccccc23)cc1 [Compound 36, methyl 4-(4-{[3-{[2-(dimethylamino)ethyl]amino}-5-(trifluoromethyl)phenyl]amino}phthalazin-1-yl)benzoate]"
2,500 to 1000 nM,"COC(=O)c1ccc(-c2nnc(Nc3ccc(Cl)c(C(F)(F)F)c3)c3ccccc23)cc1 [Compound 24, methyl 4-(4-{[4-chloro-3-(trifluoromethyl)phenyl]amino}phthalazin-1-yl)benzoate]"
3,150 to 500 nM,"COC(=O)c1ccc(-c2nnc(Nc3cc(C(F)(F)F)cc(C(F)(F)F)c3)c3ccccc23)cc1 [Compound 66, methyl 4-(4-{[3,5-bis(trifluoromethyl)phenyl]amino}phthalazin-1-yl)benzoate]"
4,≤ 150 nM,"CCc1cc(Nc2nnc(-c3ccc(C(=O)OC)cc3)c3ccccc23)cc(C(F)(F)F)c1 [Compound 19, methyl 4-(4-{[3-ethyl-5-(trifluoromethyl)phenyl]amino}phthalazin-1-yl)benzoate]"
5,150 to 500 nM,"COC(=O)c1ccc(-c2nnc(Nc3cc(C)cc(Br)c3)c3ccccc23)cc1 [Compound 59, methyl 4-{4-[(3-bromo-5-methylphenyl)amino]phthalazin-1-yl}benzoate]"
6,150 to 500 nM,"COC(=O)c1ccc(-c2nnc(Nc3cc(NCCCN(C)C)cc(C(F)(F)F)c3)c3ccccc23)cc1 [Compound 8, methyl 4-(4-{[3-{[3-(dimethylamino)propyl]amino}-5-(trifluoromethyl)phenyl]amino}phthalazin-1-yl)benzoate]"
7,150 to 500 nM,"CNC(=O)c1ccc(-c2nnc(Nc3cc(C(F)(F)F)cc(C(F)(F)F)c3)c3ccccc23)cc1 [Compound 55, 4-(4-{[3,5-bis(trifluoromethyl)phenyl]amino}phthalazin-1-yl)-N-methylbenzamide]"
8,150 to 500 nM,"COC(=O)c1ccc(-c2nnc(Nc3cccc(OC(F)(F)F)c3)c3ccccc23)cc1 [Compound 43, methyl 4-[4-({3-[(trifluoromethyl)oxy]phenyl}amino)phthalazin-1-yl]benzoate]"

# Source: US20130165440A1, “JAK1 Inhibitors” (EXELIXIS, INC., priority 2010, published 2013)
